Source: patent US4072574A, “System for in vitro assay for mutagenicity and/or carcinogenicity of chemicals or other exogenous agents” (priority 1976, dated 1978)

Key:
AMV DNA polymerase [1] = assay: Fidelity of in vitro DNA synthesis (error frequency) with AMV DNA polymerase copying synthetic polynucleotide templates; details: for Class: Table 1, classes 1-3 not defined; for Complementary Nucleotide (pmoles dTMP) / Non-Complementary Nucleotide (pmoles dCMP) / Error Frequency / effect on error frequency (in words): poly (A).oligo (dT); for Error Frequency: dCMP/dTMP; for effect on error frequency (in words): dTMP complementary, dCMP non-complementary
Description: (§1) In this invention, the ability of carcinogens to decrease the fidelity of in vitro DNA synthesis will be used to screen for carcinogenic or mutagenic agents. The system uses synthetic polynucleotides of defined composition which may be copied in the test tubes with procaryotic, eucaryotic or viral DNA polymerases. The use of synthetic polynucleotides of defined composition allows the measurement of the simultaneous incorporation of the correct, complementary nucleotide and an incorrect, non-complementary nucleotide. The correct nucleotide is labeled with [α-^32 P] of low specific activity and the incorrect nucleotide is labeled with [^3 H] of high specific activity. Through this double labeled reaction it is possible to determine the simultaneous incorporation of both nucleotides and thus to determine an error frequency. The error frequency may be defined as the ratio of the incorrect/correct nucleotide incorporation. Agents which increase this error frequency may be scored as positive. […] Agents which score positive would be checked using different templates to underscore the positive results. In this system different polymerases will be used as well as different templates. One would expect that most carcinogens would change the fidelity of DNA synthesis with different polymerases as well as with different templates though this need not be the case.
(§2) Each assay will consist of a polymerase, a polynucleotide template that only contains one or two nucleotides, a complementary nucleotide and a non-complementary nucleotide as well as magnesium. Both of the nucleotides will be labeled by radioactive precursors and the ratio between the two is to be used for a measure of error frequency in the system. In instances where a template requires two complementary nucleotides, only one will be radioactively labeled.
(§3) Reactions (total volume 0.05 ml) which measured complementary nucleotide incorporation contained 50 mM Tris-HCL (pH 8.0), 20 mM KCl, 5 mM dithiothreitol, 5 mM MgCl2, 2μg BSA, […] [α-^32 P] -dTTP (60 dpm/pmole), 1μg poly (A).oligo (dT) (1:1.5 mass ratio), and 0.45 μg of AMV DNA polymerase. For simultaneous quantitation of complementary and non-complementary nucleotide incorporation each reaction was modified to contain 26μM [α-^32 P]dTTP (12 dpm/pmole) and 23μM [^3 H]-dCTP (50,000 dpm/pmole). […] Metals were added directly to the reaction mixture as aqueous solutions of chloride salts. All reactions were incubated for 60 min. at 37° C. Incorporation of radioactive nucleotides into an acid-insoluble and alkali-resistant product was determined by using the precipitation-solubilization procedure as described by Battula and Loeb. All experiments were performed in triplicate and the averages were determined.
(§4) In order to determine the effect of different metals on the accuracy of DNA replication, metal cations were added as chloride salts directly to the polymerase reaction. In these experiments, poly (A).oligo (dT) was the template-primer and the simultaneous incorporation of complementary nucleotide, [α-^32 P]-dTMP, and the non-complementery nucleotide, [^3 H]-dCMP, was determined.
(§5) The effect of metal salts on the fidelity of DNA synthesis was examined by testing each of the metal salts at a minimum of seven different concentrations.

[2] = as above; details: amv dna polymerase
Description: as §1, §2, §3, §4, §5

[3] = known status of the compound; cited from earlier work
AMV DNA polymerase [4] = assay: Metal requirements for catalysis by AMV DNA polymerase; assay type: biochemical, avian myeloblastosis virus; details: poly (A).oligo (dT); for ability to substitute for Mg^2+ as added divalent cation: absence of Mg^2+, Be^2+ up to 15 mM
Procedure: All known DNA polymerases require either Mg^2+ or Mn^2+ as an added divalent cation for activity. AMV DNA polymerase used Mg^2+ as an added divalent cation and the maximum rate of polymerization with poly (A).oligo (dT) was attained at 5 mM Mg^2+. […] Thymidine monophosphate incorporation with Be^2+ was less than 0.3% of that obtained with 5 mM Mg^2+.

[5] = 10 mM added cation + Mg^2+ 5 mM

## CC(=O)O [Ba(C2 H3 O2)2]
AMV DNA polymerase [1]; template poly [d(A-T)]
  Class: 2
  Metal Concentration which yielded the largest observed change in error rate: 10 mM
[2]; poly [d(a-t)]
  fold induction at 1 h: 0.94

## [Ba+2].[Cl-].[Cl-] [BaCl2]
[3]
  Carcinogen or Mutagen: -
AMV DNA polymerase [1]; 2 mM added cation + Mg^2+ 5 mM
  Complementary Nucleotide (pmoles dTMP): 240 pmol
  Non-Complementary Nucleotide (pmoles dCMP): 0.42 pmol
  Error Frequency: 1/578
AMV DNA polymerase [1]; 6 mM added cation + Mg^2+ 5 mM
  Complementary Nucleotide (pmoles dTMP): 243 pmol
  Non-Complementary Nucleotide (pmoles dCMP): 0.46 pmol
  Error Frequency: 1/528
AMV DNA polymerase [1]; [5]
  Complementary Nucleotide (pmoles dTMP): 317 pmol
  Non-Complementary Nucleotide (pmoles dCMP): 0.61 pmol
  Error Frequency: 1/520
AMV DNA polymerase [1]; template poly (A).oligo (dT)
  Class: 2
  Metal Concentration which yielded the largest observed change in error rate: 10 mM
AMV DNA polymerase [1]
  effect on error frequency (in words): did not affect either the incorporation of the complementary or non-complementary nucleotides
AMV DNA polymerase [4]
  ability to substitute for Mg^2+ as added divalent cation: unable to substitute for Mg^2+

## [Ca+2].[Cl-].[Cl-] [CaCl2]
[3]
  Carcinogen or Mutagen: -
AMV DNA polymerase [1]; 1 mM added cation + Mg^2+ 5 mM
  Complementary Nucleotide (pmoles dTMP): 704 pmol
  Non-Complementary Nucleotide (pmoles dCMP): 0.70 pmol
  Error Frequency: 1/1005
AMV DNA polymerase [1]; 2 mM added cation + Mg^2+ 5 mM
  Complementary Nucleotide (pmoles dTMP): 129 pmol
  Non-Complementary Nucleotide (pmoles dCMP): 0.19 pmol
  Error Frequency: 1/681
AMV DNA polymerase [1]; 5 mM added cation + Mg^2+ 5 mM
  Complementary Nucleotide (pmoles dTMP): 55 pmol
  Non-Complementary Nucleotide (pmoles dCMP): 0.083 pmol
  Error Frequency: 1/665
AMV DNA polymerase [1]; template poly (A).oligo (dT)
  Class: 2
  Metal Concentration which yielded the largest observed change in error rate: 5 mM
AMV DNA polymerase [1]
  effect on error frequency (in words): did not alter the error frequency
AMV DNA polymerase [4]
  ability to substitute for Mg^2+ as added divalent cation: unable to substitute for Mg^2+

## [Cl-].[Cl-].[Mg+2] [Mg^2+, magnesium chloride]
AMV DNA polymerase [1]; Mg^2+ 2 mM alone
  Complementary Nucleotide (pmoles dTMP): 320 pmol
  Non-Complementary Nucleotide (pmoles dCMP): 0.56 pmol
  Error Frequency: 1/571
AMV DNA polymerase [1]; Mg^2+ 5 mM alone
  Complementary Nucleotide (pmoles dTMP): 600 pmol
  Non-Complementary Nucleotide (pmoles dCMP): 1.16 pmol
  Error Frequency: 1/517
AMV DNA polymerase [1]; Mg^2+ 8 mM alone
  Complementary Nucleotide (pmoles dTMP): 520 pmol
  Non-Complementary Nucleotide (pmoles dCMP): 1.00 pmol
  Error Frequency: 1/520
AMV DNA polymerase [1]; Mg^2+ 15 mM alone
  Complementary Nucleotide (pmoles dTMP): 240 pmol
  Non-Complementary Nucleotide (pmoles dCMP): 0.90 pmol
  Error Frequency: 1/600
AMV DNA polymerase [1]
  effect on error frequency (in words): invariant with respect to Mg^2+ concentration
AMV DNA polymerase [4]
  Mg^2+ concentration at which the maximum rate of polymerization was attained: 5 mM

## O=CO [NH4 COOH]
AMV DNA polymerase [1]; template poly [d(A-T)]
  Class: 2
  Metal Concentration which yielded the largest observed change in error rate: 100 mM
[2]; poly [d(a-t)]
  fold induction at 1 h: 0.83

## CC(=O)O [NaC2 H3 O2]
[3]
  Carcinogen or Mutagen: -
AMV DNA polymerase [1]; template poly (C).oligo (dG)
  Class: 2
  Metal Concentration which yielded the largest observed change in error rate: 100 mM
[2]; poly(c).oligo(dg)
  fold induction at 1 h: 1

## O=C(O)O [NaHCO3]
[3]
  Carcinogen or Mutagen: -
AMV DNA polymerase [1]; template poly [d(A-T)]
  Class: 2
  Metal Concentration which yielded the largest observed change in error rate: 40 mM
[2]; poly [d(a-t)]
  fold induction at 1 h: 0.96

## [Cl-].[Cl-].[Sr+2] [SrCl2]
[3]
  Carcinogen or Mutagen: -
AMV DNA polymerase [1]; 4 mM added cation + Mg^2+ 5 mM
  Complementary Nucleotide (pmoles dTMP): 798 pmol
  Non-Complementary Nucleotide (pmoles dCMP): 0.86 pmol
  Error Frequency: 1/927
AMV DNA polymerase [1]; 6 mM added cation + Mg^2+ 5 mM
  Complementary Nucleotide (pmoles dTMP): 936 pmol
  Non-Complementary Nucleotide (pmoles dCMP): 0.96 pmol
  Error Frequency: 1/975
AMV DNA polymerase [1]; [5]
  Complementary Nucleotide (pmoles dTMP): 845 pmol
  Non-Complementary Nucleotide (pmoles dCMP): 0.86 pmol
  Error Frequency: 1/982
AMV DNA polymerase [1]; template poly (A).oligo (dT)
  Class: 3
  Metal Concentration which yielded the largest observed change in error rate: 10 mM
AMV DNA polymerase [1]
  effect on error frequency (in words): did not affect either the incorporation of the complementary or non-complementary nucleotides

## [Cl-].[Cl-].[Zn+2] [ZnCl2]
[3]
  Carcinogen or Mutagen: ±
AMV DNA polymerase [1]; template poly [d(A-T)]
  Class: 2
  Metal Concentration which yielded the largest observed change in error rate: 0.4 mM
